Source: PubChem BioAssay (NCI)
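48-hour exposure; five concentrations; linearly interpolated endpoints. Definition used: TGI = concentration required for complete inhibition of growth.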

Experiments:
Assay in all cases: NCI tumour cell line growth inhibition, 48 h
[1] = test system: TK-10 renal
[2] = test system: MCF7 breast
[3] = test system: MALME-3M melanoma
[4] = test system: ACHN renal
[5] = test system: SW-620 colon
[6] = test system: UO-31 renal
[7] = test system: OVCAR-8 ovarian
[8] = test system: LOX IMVI melanoma
[9] = test system: SNB-19 CNS
[10] = test system: HOP-62 NSCLC
[11] = test system: NCI-H23 lung
[12] = test system: HL-60(TB) leukemia
[13] = test system: MDA-MB-435
[14] = test system: EKVX NSCLC
[15] = test system: OVCAR-3 ovarian
[16] = test system: SK-MEL-5 melanoma
[17] = test system: U251 CNS
[18] = test system: SNB-75 CNS
[19] = test system: OVCAR-4 ovarian
[20] = test system: COLO 205 colon
[21] = test system: CCRF-CEM leukemia
[22] = test system: MOLT-4 leukemia
[23] = test system: HS 578T breast
[24] = test system: MDA-N
[25] = test system: SK-MEL-28 melanoma
[26] = test system: T-47D breast
[27] = test system: OVCAR-5 ovarian
[28] = test system: IGROV1 ovarian
[29] = test system: SF-539 CNS
[30] = test system: HT29 colon
[31] = test system: DU-145 prostate
[32] = test system: MDA-MB-231 breast
[33] = test system: RXF 393 renal
[34] = test system: NCI/ADR-RES ovarian
[35] = test system: 786-0 renal
[36] = test system: UACC-257 melanoma
[37] = test system: A498 renal
[38] = test system: NCI-H226 lung
[39] = test system: NCI-H460 lung
[40] = test system: SF-295 CNS
[41] = test system: HCT-116 colon
[42] = test system: A549 NSCLC
[43] = test system: KM12 colon
[44] = test system: CAKI-1 renal
[45] = test system: K-562 leukemia
[46] = test system: HCC-2998 colon
[47] = test system: UACC-62 melanoma
[48] = test system: BT-549 breast
[49] = test system: M14 melanoma
[50] = test system: HCT-15 colon
[51] = test system: NCI-H522 lung
[52] = test system: HOP-92 NSCLC
[53] = test system: SN12C renal
[54] = test system: SF-268 CNS
[55] = test system: RPMI-8226 leukemia
[56] = test system: SR leukemia
[57] = test system: SK-MEL-2 melanoma
[58] = test system: SK-OV-3 ovarian
[59] = test system: PC-3 prostate

## Cc1nn2c(C(=O)N/N=C/c3ccccc3O)c(C)nc2s1
[1]
  TGI: > 100 µM
[2]
  TGI: > 100 µM
[3]
  TGI: > 100 µM
[4]
  TGI: > 100 µM
[5]
  TGI: > 100 µM
[6]
  TGI: > 100 µM
[7]
  TGI: > 100 µM
[8]
  TGI: > 100 µM
[9]
  TGI: > 100 µM
[10]
  TGI: > 100 µM
[11]
  TGI: > 100 µM
[12]
  TGI: > 100 µM
[13]
  TGI: > 100 µM
[14]
  TGI: > 100 µM
[15]
  TGI: 90.6 µM
[16]
  TGI: > 100 µM
[17]
  TGI: > 100 µM
[18]
  TGI: > 100 µM
[19]
  TGI: > 100 µM
[20]
  TGI: > 100 µM
[21]
  TGI: > 100 µM
[22]
  TGI: > 100 µM
[23]
  TGI: > 100 µM
[24]
  TGI: > 100 µM
[25]
  TGI: > 100 µM
[26]
  TGI: > 100 µM
[27]
  TGI: > 100 µM
[28]
  TGI: > 100 µM
[29]
  TGI: > 100 µM
[30]
  TGI: > 100 µM
[31]
  TGI: > 100 µM
[32]
  TGI: > 100 µM
[33]
  TGI: > 100 µM
[34]
  TGI: > 100 µM
[35]
  TGI: > 100 µM
[36]
  TGI: > 100 µM
[37]
  TGI: > 100 µM
[38]
  TGI: > 100 µM
[39]
  TGI: > 100 µM
[40]
  TGI: > 100 µM
[41]
  TGI: > 100 µM
[42]
  TGI: > 100 µM
[43]
  TGI: > 100 µM
[44]
  TGI: > 100 µM
[45]
  TGI: > 100 µM
[46]
  TGI: > 100 µM
[47]
  TGI: > 100 µM
[48]
  TGI: > 100 µM
[49]
  TGI: > 100 µM
[50]
  TGI: > 100 µM
[51]
  TGI: > 100 µM
[52]
  TGI: > 100 µM
[53]
  TGI: > 100 µM
[54]
  TGI: > 100 µM

## COc1cc(-c2cc(=O)c3c(OC)c(OC)c(OC)c(OC)c3o2)cc(OC)c1OC
[1]
  TGI: > 100 µM
[2]
  TGI: > 100 µM
[3]
  TGI: > 100 µM
[4]
  TGI: > 100 µM
[5]
  TGI: > 100 µM
[6]
  TGI: > 100 µM
[55]
  TGI: > 100 µM
[7]
  TGI: > 100 µM
[8]
  TGI: 83.1 µM
[9]
  TGI: > 100 µM
[10]
  TGI: > 100 µM
[11]
  TGI: > 100 µM
[12]
  TGI: 67.5 µM
[13]
  TGI: > 100 µM
[14]
  TGI: > 100 µM
[56]
  TGI: > 100 µM
[15]
  TGI: > 100 µM
[16]
  TGI: 39.5 µM
[17]
  TGI: > 100 µM
[18]
  TGI: > 100 µM
[57]
  TGI: > 100 µM
[19]
  TGI: > 100 µM
[20]
  TGI: 40 µM
[21]
  TGI: > 100 µM
[22]
  TGI: > 100 µM
[23]
  TGI: > 100 µM
[24]
  TGI: > 100 µM
[25]
  TGI: > 100 µM
[26]
  TGI: 70.5 µM
[27]
  TGI: > 100 µM
[28]
  TGI: > 100 µM
[29]
  TGI: > 100 µM
[30]
  TGI: > 100 µM
[31]
  TGI: > 100 µM
[32]
  TGI: > 100 µM
[33]
  TGI: > 100 µM
[34]
  TGI: 84 µM
[35]
  TGI: > 100 µM
[36]
  TGI: > 100 µM
[37]
  TGI: 85.2 µM
[38]
  TGI: > 100 µM
[39]
  TGI: > 100 µM
[40]
  TGI: > 100 µM
[41]
  TGI: > 100 µM
[42]
  TGI: > 100 µM
[44]
  TGI: > 100 µM
[45]
  TGI: > 100 µM
[46]
  TGI: > 100 µM
[47]
  TGI: 89.5 µM
[48]
  TGI: > 100 µM
[49]
  TGI: > 100 µM
[50]
  TGI: > 100 µM
[58]
  TGI: > 100 µM
[51]
  TGI: 51.1 µM
[52]
  TGI: 86.6 µM
[53]
  TGI: > 100 µM
[54]
  TGI: > 100 µM

## CCOP(=O)(OCC)/C(C#N)=C/c1cnc(C)[nH]1
[1]
  TGI: > 100 µM
[2]
  TGI: > 100 µM
[3]
  TGI: > 100 µM
[4]
  TGI: > 100 µM
[5]
  TGI: > 100 µM
[6]
  TGI: > 100 µM
[55]
  TGI: > 100 µM
[7]
  TGI: > 100 µM
[8]
  TGI: > 100 µM
[9]
  TGI: > 100 µM
[10]
  TGI: > 100 µM
[11]
  TGI: > 100 µM
[12]
  TGI: > 100 µM
[13]
  TGI: > 100 µM
[14]
  TGI: > 100 µM
[56]
  TGI: > 100 µM
[15]
  TGI: > 100 µM
[16]
  TGI: > 100 µM
[17]
  TGI: > 100 µM
[18]
  TGI: > 100 µM
[57]
  TGI: > 100 µM
[19]
  TGI: > 100 µM
[20]
  TGI: > 100 µM
[21]
  TGI: > 100 µM
[22]
  TGI: > 100 µM
[23]
  TGI: > 100 µM
[24]
  TGI: > 100 µM
[25]
  TGI: > 100 µM
[27]
  TGI: > 100 µM
[28]
  TGI: > 100 µM
[29]
  TGI: > 100 µM
[30]
  TGI: > 100 µM
[31]
  TGI: > 100 µM
[32]
  TGI: > 100 µM
[33]
  TGI: > 100 µM
[34]
  TGI: > 100 µM
[35]
  TGI: > 100 µM
[36]
  TGI: > 100 µM
[37]
  TGI: > 100 µM
[38]
  TGI: > 100 µM
[39]
  TGI: > 100 µM
[40]
  TGI: > 100 µM
[41]
  TGI: > 100 µM
[42]
  TGI: > 100 µM
[43]
  TGI: > 100 µM
[44]
  TGI: > 100 µM
[45]
  TGI: > 100 µM
[46]
  TGI: > 100 µM
[47]
  TGI: > 100 µM
[48]
  TGI: > 100 µM
[49]
  TGI: > 100 µM
[50]
  TGI: > 100 µM
[58]
  TGI: > 100 µM
[51]
  TGI: > 100 µM
[59]
  TGI: > 100 µM
[52]
  TGI: > 100 µM
[53]
  TGI: > 100 µM
[54]
  TGI: > 100 µM
